Measurements: publication PMC7442744 (Journal of the American Chemical Society, 2020)

Molecular target: human SQOR (sulfide quinone oxidoreductase) (Homo sapiens, UniProt Q9Y6N5)
Assay: absorption spectroscopy, charge transfer complex formation
Type: binding
Conditions: covalent; 5 mM sulfite, 5 μM native SQOR, 20 °C, 1 min

human SQOR (sulfide quinone oxidoreductase), sequence (Q9Y6N5 42-450): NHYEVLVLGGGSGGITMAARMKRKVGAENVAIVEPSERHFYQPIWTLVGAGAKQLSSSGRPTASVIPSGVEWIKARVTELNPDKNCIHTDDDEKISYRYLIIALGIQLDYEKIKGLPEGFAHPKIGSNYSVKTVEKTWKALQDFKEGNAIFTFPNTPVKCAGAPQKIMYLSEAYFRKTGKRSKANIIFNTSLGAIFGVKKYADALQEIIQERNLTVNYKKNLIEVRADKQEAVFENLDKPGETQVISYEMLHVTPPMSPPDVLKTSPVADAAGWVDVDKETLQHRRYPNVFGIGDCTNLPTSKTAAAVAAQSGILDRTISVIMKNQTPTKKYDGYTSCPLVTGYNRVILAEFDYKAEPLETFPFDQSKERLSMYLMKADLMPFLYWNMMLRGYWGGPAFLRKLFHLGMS

## O=S(O)O [sulfite]
  absorption spectroscopy, charge transfer complex formation: sulfite treatment, which forms a strong CT complex when added to native SQOR
